Target: T1, α5β2γ2 subtype GABAAR (Homo sapiens, UniProt P18507+P31644)
T1 construct: expressed in transfected cells
T1 sequence (P31644 32-462): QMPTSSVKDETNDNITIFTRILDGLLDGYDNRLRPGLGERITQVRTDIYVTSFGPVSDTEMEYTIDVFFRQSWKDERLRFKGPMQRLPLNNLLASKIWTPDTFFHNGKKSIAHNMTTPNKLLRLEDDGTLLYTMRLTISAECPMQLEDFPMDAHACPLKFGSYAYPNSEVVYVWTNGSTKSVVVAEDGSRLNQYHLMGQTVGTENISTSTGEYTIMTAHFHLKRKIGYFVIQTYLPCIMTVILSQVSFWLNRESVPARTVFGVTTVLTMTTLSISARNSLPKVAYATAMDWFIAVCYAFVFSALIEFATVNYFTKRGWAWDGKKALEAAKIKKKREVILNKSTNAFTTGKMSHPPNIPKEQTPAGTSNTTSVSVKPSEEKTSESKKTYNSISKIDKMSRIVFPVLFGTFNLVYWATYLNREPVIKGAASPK
T1 sequence (P47870 25-512 partner limits assumed): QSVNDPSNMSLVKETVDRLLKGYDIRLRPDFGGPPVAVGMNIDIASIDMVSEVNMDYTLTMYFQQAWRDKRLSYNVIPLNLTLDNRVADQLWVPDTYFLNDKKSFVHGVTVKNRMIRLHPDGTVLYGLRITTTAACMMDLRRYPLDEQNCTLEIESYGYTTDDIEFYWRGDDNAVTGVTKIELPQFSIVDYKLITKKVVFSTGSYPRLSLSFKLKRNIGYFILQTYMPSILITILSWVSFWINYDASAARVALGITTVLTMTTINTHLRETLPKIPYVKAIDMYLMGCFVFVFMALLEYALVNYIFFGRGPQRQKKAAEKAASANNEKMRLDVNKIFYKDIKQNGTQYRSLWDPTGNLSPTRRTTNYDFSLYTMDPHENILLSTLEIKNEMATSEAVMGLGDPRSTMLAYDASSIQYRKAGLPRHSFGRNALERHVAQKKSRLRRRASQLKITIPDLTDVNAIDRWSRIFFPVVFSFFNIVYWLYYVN
T1 sequence (P18507 40-467 limits assumed): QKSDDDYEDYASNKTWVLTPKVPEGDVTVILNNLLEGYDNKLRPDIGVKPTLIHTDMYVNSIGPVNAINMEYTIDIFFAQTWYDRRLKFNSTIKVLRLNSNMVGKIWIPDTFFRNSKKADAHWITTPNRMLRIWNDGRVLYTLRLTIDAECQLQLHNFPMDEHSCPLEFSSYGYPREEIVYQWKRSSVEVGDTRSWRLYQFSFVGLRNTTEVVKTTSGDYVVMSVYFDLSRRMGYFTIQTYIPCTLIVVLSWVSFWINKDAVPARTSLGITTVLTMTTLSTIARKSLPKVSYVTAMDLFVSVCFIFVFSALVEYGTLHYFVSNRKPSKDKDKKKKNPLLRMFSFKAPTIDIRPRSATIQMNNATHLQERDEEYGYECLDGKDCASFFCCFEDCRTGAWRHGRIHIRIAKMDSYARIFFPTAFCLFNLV
Assay: Positive allosteric modulator activity: potentiation of EC20 GABA current in oocytes
Assay type: cell-based
Conditions: read-out: GABA α5 Functional Data (potentiation), @ 100 nM, reported as ranges
Procedure: (B) Positive Allosteric Modulator Activity of Test Compounds on α5β2γ2 Subtype GABAAR
On day 1, 1 ng/32 nL of GABAA α5β2γ2 cDNA was injected into one oocyte. Test starts on day 2. The cDNA injected to the oocytes was a mix of alpha, beta and gamma, their ratio is 1:1:10 (by weight) and the total weight of the mixed 3 subunits to be injected in one oocyte was 1 ng in 32 nl volume. The injected oocytes can also be tested on day 3. In such case, the cDNA amount injected to the oocytes should be reduced by 20%.
Compounds of the present invention were tested using the following procedures.
• 1). 8 oocytes were placed in 8 chambers of OpusXpress and superfused with Modified Barth's Saline (MBS) at 3 mL/min. Glass electrodes back-filled with 3M KCl (0.5-3 megaohms) were used.
Control test (Diazepam or methyl 3,5-diphenylpyridazine-4-carboxylate) • 1). New oocytes was used to run new test. • 2). […] Oocytes were washed with MBS for 5-10 min. • 4). […] Itest was divided by IGABA to obtain potentiation (%). Test Compounds at Multiple Doses • 1). Repeat the above steps 1), 2) and 3) in the control test. • 2). […] Divide Itest by IGABA to obtain potentiation (%). • 3). Discard all tested oocytes, new oocytes were used and the above steps 1) and 2) were repeated to test second concentration of the same compound. Each oocyte was used for only one concentration test for a single test compound. The steps were repeated for other test compounds.

COCc1nnc2n1Cc1c(-c3nc(-c4ccc(F)cc4)co3)ncn1-c1ccc(Cl)cc1-2 [Compound 324]
activation at 0.1 µM: 20 to 50%

CCOCc1nnc2n1Cc1c(C3=N[C@@H](c4ccc(F)cc4)CO3)ncn1-c1ccc(Cl)cc1-2 [Compound 325]
activation at 0.1 µM: 20 to 50%

CC(C)OCc1nnc2n1Cc1c(C3=N[C@@H](c4ccc(F)cc4)CO3)ncn1-c1ccc(Cl)cc1-2 [Compound 326]
activation at 0.1 µM: 20 to 50%

C#Cc1ncn2c1Cn1c(COC)nnc1-c1cc(OC)ccc1-2 [Compound 328, 5-ethynyl-15-methoxy-9-(methoxymethyl)-2,4,8,10,11-pentaazatetracyclo[11.4.0.0^2,^60.0^8,^12]heptadeca-1(17),3,5,9,11,13,15-heptaene]
activation at 0.1 µM: 5 to 20%

COCc1nnc2n1Cc1c(C3=N[C@@H](c4ccccc4C)CO3)ncn1-c1ccc(Cl)cc1-2 [Compound 330]
activation at 0.1 µM: 20 to 50%

COCc1nnc2n1Cc1c(C3=N[C@@H](c4ccccc4OC)CO3)ncn1-c1ccc(Cl)cc1-2 [Compound 331]
activation at 0.1 µM: 5 to 20%

COCc1nnc2n1Cc1c(C3=N[C@@H](c4ccc(OC)cc4)CO3)ncn1-c1ccc(Cl)cc1-2 [Compound 332]
activation at 0.1 µM: 5 to 20%

COCc1nnc2n1Cc1c(C3=N[C@@H](c4cccc(OC)c4)CO3)ncn1-c1ccc(Cl)cc1-2 [Compound 333]
activation at 0.1 µM: 5 to 20%

COCc1nnc2n1Cc1c(C3=N[C@@H](c4ccc(Cl)cc4)CO3)ncn1-c1ccc(Cl)cc1-2 [Compound 334]
activation at 0.1 µM: 20 to 50%

COCc1nnc2n1Cc1c(C3=N[C@@H](c4cc(F)ccc4F)CO3)ncn1-c1ccc(Cl)cc1-2 [Compound 335]
activation at 0.1 µM: 5 to 20%

COCc1nnc2n1Cc1c(C3=N[C@@H](c4ccc(C(F)(F)F)cc4)CO3)ncn1-c1ccc(Cl)cc1-2 [Compound 337]
activation at 0.1 µM: 20 to 50%

CC#Cc1ncn2c1Cn1c(COC)nnc1-c1cc(Cl)ccc1-2 [Compound 339]
activation at 0.1 µM: 20 to 50%

COCc1nnc2n1Cc1c(C3=N[C@H](c4ccccc4)CO3)ncn1-c1ccc(OC)cc1-2 [Compound 340]
activation at 0.1 µM: 20 to 50%

CCOCc1nnc2n1Cc1c(-c3ncco3)ncn1-c1ccc(Cl)cc1-2 [Compound 341]
activation at 0.1 µM: 5 to 20%

COCc1nnc2n1Cc1c(C3=N[C@@H](c4ccccc4)CO3)ncn1-c1ccc(OC)cc1-2 [Compound 343]
activation at 0.1 µM: 20 to 50%

CCC#Cc1ncn2c1Cn1c(COC)nnc1-c1cc(Cl)ccc1-2 [Compound 345]
activation at 0.1 µM: 20 to 50%

COCc1nnc2n1Cc1c(C#CCc3ccccc3)ncn1-c1ccc(Cl)cc1-2 [Compound 346]
activation at 0.1 µM: 20 to 50%

Clc1ccc2c(c1)-c1nnc(COc3ccccc3)n1Cc1c(-c3ncco3)ncn1-2 [Compound 349]
activation at 0.1 µM: 5 to 20%

Clc1ccc2c(c1)-c1nnc(COCc3ccccc3)n1Cc1c(-c3ncco3)ncn1-2 [Compound 350]
activation at 0.1 µM: > 50%

C#Cc1ncn2c1Cn1c(COCc3ccccc3)nnc1-c1cc(Cl)ccc1-2 [Compound 351]
activation at 0.1 µM: 20 to 50%

C#Cc1ncn2c1Cn1c(COc3ccccc3F)nnc1-c1cc(Cl)ccc1-2 [Compound 353, 15-chloro-5-ethynyl-9-(2-fluorophenoxymethyl)-2,4,8,10,11-pentaazatetracyclo[11.4.0.0^2,^60.0^8,^12]heptadeca-1(17),3,5,9,11,13,15-heptaene]
activation at 0.1 µM: > 50%

CC#Cc1ncn2c1Cn1c(COc3ccccc3F)nnc1-c1cc(Cl)ccc1-2 [Compound 354]
activation at 0.1 µM: 20 to 50%

Fc1ccccc1OCc1nnc2n1Cc1c(-c3ncco3)ncn1-c1ccc(Cl)cc1-2 [Compound 355]
activation at 0.1 µM: 20 to 50%

C#Cc1ncn2c1Cc1cnnn1-c1cc(Cl)ccc1-2 [Compound 356]
activation at 0.1 µM: > 50%

Clc1ccc2c(c1)-n1nncc1Cc1c(C3=N[C@@H](c4ccccc4)CO3)ncn1-2 [Compound 357]
activation at 0.1 µM: 20 to 50%

Clc1ccc2c(c1)-n1nncc1Cc1c(C3=N[C@H](c4ccccc4)CO3)ncn1-2 [Compound 358]
activation at 0.1 µM: 20 to 50%

Fc1ccc([C@H]2COC(c3ncn4c3Cc3cnnn3-c3cc(Cl)ccc3-4)=N2)cc1 [Compound 359]
activation at 0.1 µM: 5 to 20%

Fc1ccccc1[C@H]1COC(c2ncn3c2Cc2cnnn2-c2cc(Cl)ccc2-3)=N1 [Compound 360]
activation at 0.1 µM: 20 to 50%

Clc1ccc([C@H]2COC(c3ncn4c3Cc3cnnn3-c3cc(Cl)ccc3-4)=N2)cc1 [Compound 361]
activation at 0.1 µM: 20 to 50%

FC(F)(F)c1ccc([C@H]2COC(c3ncn4c3Cc3cnnn3-c3cc(Cl)ccc3-4)=N2)cc1 [Compound 362]
activation at 0.1 µM: 20 to 50%

COc1ccc2c(c1)-n1nncc1Cc1c(C3=N[C@@H](c4ccc(F)cc4)CO3)ncn1-2 [Compound 367]
activation at 0.1 µM: 5 to 20%

COc1ccc2c(c1)-n1nncc1Cc1c(C3=N[C@@H](c4ccc(Cl)cc4)CO3)ncn1-2 [Compound 368]
activation at 0.1 µM: 5 to 20%

CC(C)c1coc(-c2ncn3c2Cc2cnnn2-c2cc(Cl)ccc2-3)n1 [Compound 387]
activation at 0.1 µM: 20 to 50%

Clc1ccc2c(c1)-n1nncc1Cc1c(C#Cc3ccccc3)ncn1-2 [Compound 395]
activation at 0.1 µM: 5 to 20%

Cc1ccccc1C#Cc1ncn2c1Cc1cnnn1-c1cc(Cl)ccc1-2 [Compound 396]
activation at 0.1 µM: 5 to 20%

COc1ccc(C#Cc2ncn3c2Cc2cnnn2-c2cc(Cl)ccc2-3)cc1 [Compound 397]
activation at 0.1 µM: 20 to 50%

FC(F)(F)CC#Cc1ncn2c1Cc1cnnn1-c1cc(Cl)ccc1-2 [Compound 398]
activation at 0.1 µM: 20 to 50%

FC(F)(F)c1ccc(C#Cc2ncn3c2Cc2cnnn2-c2cc(Cl)ccc2-3)cc1 [Compound 400]
activation at 0.1 µM: 20 to 50%

Clc1ccc2c(c1)-n1nncc1Cc1c(C#Cc3ccccn3)ncn1-2 [Compound 401]
activation at 0.1 µM: 5 to 20%

Clc1ccc2c(c1)-n1nncc1Cc1c(C#Cc3cccnc3)ncn1-2 [Compound 402]
activation at 0.1 µM: 20 to 50%

COc1ccc2c(c1)-n1nncc1Cc1c(C#Cc3ccccc3)ncn1-2 [Compound 404]
activation at 0.1 µM: 5 to 20%

COc1ccc2c(c1)-n1nncc1Cc1c(C#Cc3ccccc3C)ncn1-2 [Compound 405]
activation at 0.1 µM: 5 to 20%

COc1ccc2c(c1)-n1nncc1Cc1c(C#Cc3ccc(C(F)(F)F)cc3)ncn1-2 [Compound 406]
activation at 0.1 µM: 20 to 50%

COc1ccc2c(c1)-n1nncc1Cc1c(C#Cc3cccnc3)ncn1-2 [Compound 407]
activation at 0.1 µM: 5 to 20%

COc1ccc2c(c1)-n1nncc1Cc1c(C#Cc3ccccn3)ncn1-2 [Compound 408]
activation at 0.1 µM: 5 to 20%

COc1cccc(C#Cc2ncn3c2Cc2cnnn2-c2cc(OC)ccc2-3)c1 [Compound 409]
activation at 0.1 µM: 5 to 20%

COc1ccc2c(c1)-n1nncc1Cc1c(C#CCc3ccccc3)ncn1-2 [Compound 413]
activation at 0.1 µM: 5 to 20%

COc1ccc(C#Cc2ncn3c2Cc2cnnn2-c2cc(OC)ccc2-3)cc1 [Compound 414]
activation at 0.1 µM: 20 to 50%

CC(C)C#Cc1ncn2c1Cc1cnnn1-c1cc(Cl)ccc1-2 [Compound 415]
activation at 0.1 µM: 20 to 50%

COc1ccc2c(c1)-n1nncc1Cc1c(C#CCc3cccc(Cl)c3)ncn1-2 [Compound 417]
activation at 0.1 µM: 5 to 20%

COc1ccc2c(c1)-n1nncc1Cc1c(C#CCc3cccc(OC(F)(F)F)c3)ncn1-2 [Compound 418]
activation at 0.1 µM: 20 to 50%

Source: patent US12528819B2 (priority 2016, dated 2026)
